From patent US6423729B1, “Therapeutic or prophylactic agent for glomerulopathy” (Shionogi & Co., Ltd., priority 1997, dated 2002) come the findings set out here.

One data set has as its target T1, MMP-2 (Homo sapiens, UniProt P08253).
T1 construct: purchased Yagai (Yamagata pref., Japan)
T1 sequence (P08253 110-660): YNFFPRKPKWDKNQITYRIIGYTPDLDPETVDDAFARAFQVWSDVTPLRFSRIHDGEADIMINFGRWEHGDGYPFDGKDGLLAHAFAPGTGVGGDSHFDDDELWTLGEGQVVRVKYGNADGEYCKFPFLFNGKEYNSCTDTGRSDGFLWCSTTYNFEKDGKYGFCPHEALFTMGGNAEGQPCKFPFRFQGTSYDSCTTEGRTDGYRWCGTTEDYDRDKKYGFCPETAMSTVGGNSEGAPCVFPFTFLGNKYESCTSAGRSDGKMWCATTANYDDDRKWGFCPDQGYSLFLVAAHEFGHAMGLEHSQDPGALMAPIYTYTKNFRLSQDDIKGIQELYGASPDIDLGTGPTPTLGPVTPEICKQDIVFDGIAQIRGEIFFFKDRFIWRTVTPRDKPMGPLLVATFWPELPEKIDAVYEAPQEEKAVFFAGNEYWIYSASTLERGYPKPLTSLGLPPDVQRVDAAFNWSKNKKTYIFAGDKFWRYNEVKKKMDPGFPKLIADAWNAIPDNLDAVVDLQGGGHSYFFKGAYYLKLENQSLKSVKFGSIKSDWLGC
The data set can be described thus: Assay for inhibitory activity against MMP-2. The data set is classed as biochemical. How it is done:
(§1) Assay for Inhibitory Activities of MMP-9 and MMP-2
(§2) The enzymatic activity was analyzed on the method described by Knight, C. G., et al. (C. Graham Knight., Frances Willenbrock and Gillian Murphy: A novel coumarin-labelled peptide for sensitive continuous assays of the matrix metalloproteinases. FEBS Lett., 296 (1992) 263-266).
MMP-2 was purchased from Yagai (Yamagata pref., Japan).
(§3) MOCAc-Pro-Leu-Gly-Leu-A2pr(Dnp)-Ala-Arg-NH2 as a substrate was purchased from Petide Institute(Osaka pref., Japan). This substrate was dissolved in DMSO at a concentration of 1 mM.
(§4) Reaction buffer consists of 50 mM Tris-HCl buffer (pH 7.5) containing 10 mM CaCl2, 0.3 M NaCl, 0.005% Brij35 and 0.01% NaN3.
Assay Method of Inhibitory Activity Against MMP-2:
1.0 μl of a tested compound in DMSO is added to 48.0 μl of a reaction buffer containing 0.05 μl of an enzyme solution. After standing for 60 minutes at room temperature, the reaction was started by adding 1.0 μl of a substrate solution. After incubation for 60 minutes at room temperature, 100 μl of 3% (v/v) AcOH for reaction stopping and measured a fluorescence with excitation and emission at 320 nm and 405 nm, respectively (Spectrophotofluorometer; Fluoroscan Ascent (Labsystem)).
(§5) The measurement of the inhibitory activities (IC50) was carried out in a following four methods;
(§6) A) Reaction with substrate, enzyme and inhibitor
(§7) B) Reaction with substrate and inhibitor, without enzyme
(§8) C) Reaction with substrate and enzyme, without inhibitor
(§9) D) Reaction with substrate only
(§10) IC50 values were calculated by using a following formula and each fluorescence values of above four methods (A to D).
(§11) % inhibition={1−(A−B)/(C−D)}×100
(§12) IC50 means the concentration required to inhibit 50% of the enzyme activity.

For a further data set, the target named is T2, MMP-9 (Homo sapiens, UniProt P14780).
T2 construct: made in house; host or cells: HT1080 human fibrosarcoma cells; endogenous protein secreted after TPA treatment and purified from conditioned medium
T2 sequence (P14780 107-707 limits assumed): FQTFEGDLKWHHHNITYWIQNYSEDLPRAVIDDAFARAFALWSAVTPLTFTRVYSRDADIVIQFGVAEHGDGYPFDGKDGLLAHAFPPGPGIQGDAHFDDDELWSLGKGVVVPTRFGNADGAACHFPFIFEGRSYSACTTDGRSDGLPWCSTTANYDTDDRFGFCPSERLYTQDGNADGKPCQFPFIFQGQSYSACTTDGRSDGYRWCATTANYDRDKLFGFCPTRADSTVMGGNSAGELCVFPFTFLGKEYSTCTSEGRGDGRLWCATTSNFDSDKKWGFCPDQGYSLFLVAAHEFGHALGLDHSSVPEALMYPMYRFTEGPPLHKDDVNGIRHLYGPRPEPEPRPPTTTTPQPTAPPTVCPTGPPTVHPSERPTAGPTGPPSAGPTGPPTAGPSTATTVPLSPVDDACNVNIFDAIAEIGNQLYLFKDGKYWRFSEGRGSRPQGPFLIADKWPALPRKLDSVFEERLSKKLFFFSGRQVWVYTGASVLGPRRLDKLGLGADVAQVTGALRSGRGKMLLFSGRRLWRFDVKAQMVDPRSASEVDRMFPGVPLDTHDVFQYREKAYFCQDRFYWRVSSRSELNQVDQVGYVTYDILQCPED
The data set can be described thus: Assay for inhibitory activity against MMP-9. In kind it is biochemical. The procedure: as §1, §2
MMP-9 was purified by using a combination of procedures described in previous reports as follows. Yasunori Okada, Yukio Gonoji, Katsumi Naka, Katsuro Tomita, Isao Nakanishi, Kazushi Iwata and Taro Hayakawa: Matrix metalloproteinase 9 (92-kDa gelatinase/type IV collagenase) from HT1080 human fibrosarcoma cells. Purification and activation of the precursor and enzymic properties. J. Biol. Chem., 267 (1992) 21712-21719. Yasunori Okada, Tatsuhisa Morodomi, Jan J, Enghild, Ko Suzuki, Atsushi Yasui, Isao Nakanishi, Guy Salvesen and Hideaki Nagase: Matrix metalloproteinase 2 from human rheumatoid synovial fibroblasts. Purification and activation of the precursor and enzymic properties. Eur. J. Biochem. 194 (1990) 721-730. Robin V Ward, Rosalind M Hembry, John J Reynolds and Gillian Murphy: The purification of tissue inhibitor of metalloproteinase-2 from its 72 kDa progelatinase complex. Biochem. J. 278 (1991) 179-187.
Briefly, human fibrosarcoma ATCC HT1080 cell line was cultured to confluent in Dulbecco's Modified Medium (DMEM) containing 10% fetal-calf serum at 37° C. for 48 hours. Subsequently, the medium of confluent culture was changed to serum-free DMEM medium. To obtain MMP-9, Phorbol-12-myristate-13-acetate (TPA) must be added to this serum-free DMEM medium at a concentration of 50 ng/ml. The TPA treated medium was centrifuged at 3000 rpm for 15 min and the supernatant was concentrated to 450 ml by a Toyo-Roshi UP-20 apparatus with an ultrafiltration membrane. Then, proMMP-9 in this concentrated solution was purified by using columns of Gelatin-Sepharose and Concanavalin A-Sepharose. The pool containing proMMP-9 was dialyzed, concentrated (Toyo-Roshi UP-20) and applied to columns of Sephacryl S-200 and Green A matrix for the separation from TIMPs. The obtained proMMP-9 fraction was activated by TPCK-Trypsin (final conc. […] reaction mix.) for the assay.
as §3, §4
Assay Method of Inhibitory Activity Against MMP-9:
1.0 μl of a tested compound in DMSO is added to 48.0 μl of a reaction buffer containing 0.08 μl of an enzyme solution. After standing for 60 minutes at room temperature, the reaction was started by adding 1.0 μl of a substrate solution. After incubation for 60 minutes at room temperature, 100 μl of 3% (v/v) AcOH for reaction stopping and measured a fluorescence with excitation and emission at 320 nm and 405 nm, respectively (Spectrophotofluorometer; Fluoroscan Ascent (Labsystem)).
as §5, §6, §7, §8, §9, §10, §11, §12

The structures appear in SMILES notation. pIC50: −log10 of the molar value.

As usually defined, the pIC50 is the negative decadic logarithm of the IC50, by convention in mol/L. What is called melting point is the temperature of the solid-liquid transition. In the case of `Cc1ccc(C#Cc2ccc(S(=O)(=O)N[C@H](Cc3ccccc3)C(=O)O)s2)s1` [Compound 87], the melting point was in the range of 158 to 160 °C. The negative logarithm of the IC50 (pIC50) on MMP-2 is 8.43. In addition, the negative-log IC50 (pIC50) at MMP-9 is 8.00.

In turn, `Cc1ccc(-n2nnc(-c3ccc(S(=O)(=O)N[C@@H](C(=O)O)C(C)C)s3)n2)cc1` [Compound 96] registered a melting point of 178 to 179 °C. The pIC50 on MMP-2 is 8.82. The pIC50 at MMP-9 was 7.44.

With `CC(C)[C@@H](NS(=O)(=O)c1ccc(-c2nnn(-c3ccc(F)cc3)n2)s1)C(=O)O` [Compound 97], the melting point fell in the range of 184 to 186 °C. For the same compound, at MMP-2, the negative logarithm of the IC50 (pIC50) is 7.81. The pIC50 on MMP-9 is 6.87.

Take `CC(C)[C@@H](NS(=O)(=O)c1ccc(-c2ncc(-c3ccccc3)o2)s1)C(=O)O` [Compound 98]: the melting point fell in the range of 220 to 223 °C. In addition, the pIC50 on MMP-2 was 7.02. In addition, the pIC50 at MMP-9 was 6.10.

With `Cc1ccc(-c2ccc(-c3ccc(S(=O)(=O)N[C@@H](C(=O)O)C(C)C)cc3)s2)cc1` [Compound 103], the negative logarithm of the IC50 (pIC50) was 8.21 at MMP-2 and 7.56 on MMP-9.

The compound `O=C(O)[C@@H](Cc1ccccc1)NS(=O)(=O)c1ccc(-n2nnc(-c3ccc(F)cc3)n2)cc1` [Compound 105] had a melting point of 190 to 192 °C. The pIC50 against MMP-2 was 7.38. For the same compound, on MMP-9, the negative-log IC50 (pIC50) was 6.52.

For the compound `CC(C)[C@@H](NS(=O)(=O)c1ccc(-n2nnc(-c3ccc(F)cc3)n2)cc1)C(=O)O` [Compound 106], the melting point is 204 to 205 °C. The compound also gave a negative-log IC50 (pIC50) against MMP-2 of 7.55. The pIC50 at MMP-9 was 6.98.

The compound `CCc1ccc(-c2nnn(-c3ccc(S(=O)(=O)N[C@@H](C(=O)O)C(C)C)cc3)n2)cc1` [Compound 107] had a melting point of 186 to 187 °C. The compound also had a pIC50 at MMP-2 of 8.45. For the same compound, the negative-log IC50 (pIC50) at MMP-9 is 8.08.

As to `CCc1ccc(-c2nnn(-c3ccc(S(=O)(=O)N[C@@H](Cc4ccccc4)C(=O)O)cc3)n2)cc1` [Compound 110], the melting point was in the range of 188 to 190 °C. The negative-log IC50 (pIC50) against MMP-2 is 7.59. At MMP-9, the pIC50 was 7.02.

On to `O=C(O)[C@@H](Cc1c[nH]c2ccccc12)NS(=O)(=O)c1ccc(-n2nnc(-c3ccc(F)cc3)n2)cc1` [Compound 111], for which the melting point is 113 to 115 °C. Moreover, the pIC50 against MMP-2 is 7.97. Also, the pIC50 at MMP-9 was 6.98.

`CCc1ccc(-c2nnn(-c3ccc(S(=O)(=O)N[C@H](C(=O)O)C(C)C)cc3)n2)cc1` [Compound 112] registered a melting point of 179 to 181 °C. On MMP-2, this compound gave a pIC50 of 7.55. Also, at MMP-9, the pIC50 is 6.90.

As for `CCc1ccc(-c2nnn(-c3ccc(S(=O)(=O)N[C@H](CC(C)C)C(=O)O)cc3)n2)cc1` [Compound 113], the melting point lay in the range of 153 to 154 °C. The same compound gave a negative logarithm of the IC50 (pIC50) at MMP-2 of 8.24. The pIC50 on MMP-9 was 7.14.

`O=C(O)[C@@H](Cc1ccccc1)NS(=O)(=O)c1ccc(-n2nnc(-c3ccccc3)n2)cc1` [Compound 115] registered a melting point of 191 to 192 °C. The compound also showed a pIC50 against MMP-2 of 6.74. In addition, the negative-log IC50 (pIC50) on MMP-9 is 5.34.

The compound `CCc1ccc(-c2nnn(-c3ccc(S(=O)(=O)N[C@H](C)C(=O)O)cc3)n2)cc1` [Compound 117] gave a melting point of 155 to 157 °C. On MMP-2, this compound gave a pIC50 of 8.58. Also, the negative-log IC50 (pIC50) at MMP-9 was 7.51.

For `CCOc1ccc(-c2nnn(-c3ccc(S(=O)(=O)N[C@@H](C(=O)O)C(C)C)cc3)n2)cc1` [Compound 118], the melting point was 187 to 189 °C. The negative-log IC50 (pIC50) against MMP-2 was 8.67. Moreover, the negative logarithm of the IC50 (pIC50) at MMP-9 is 7.21.

For the compound `CC(C)[C@@H](NS(=O)(=O)c1ccc(-n2nnc(-c3ccc(N(C)C)cc3)n2)cc1)C(=O)O` [Compound 119], the melting point lay in the range of 185 to 188 °C. This compound had a pIC50 at MMP-2 of 8.77. Further, on MMP-9, the negative-log IC50 (pIC50) is 7.34.

Regarding `CSc1ccc(-c2nnn(-c3ccc(S(=O)(=O)N[C@@H](C(=O)O)C(C)C)cc3)n2)cc1` [Compound 120], the melting point lay in the range of 194 to 196 °C. At MMP-2, this compound had a pIC50 of 9.04. Besides, at MMP-9, the pIC50 is 8.24.

With `CCCCc1ccc(-c2nnn(-c3ccc(S(=O)(=O)N[C@@H](C(=O)O)C(C)C)cc3)n2)cc1` [Compound 121], the melting point fell in the range of 191 to 193 °C. At MMP-2, this compound gave a pIC50 of 9.25. In addition, the pIC50 at MMP-9 was 6.83.
